target: human CRTH2 receptor (Homo sapiens (Human), UniProt Q9Y5Y4); test: CRTH2 receptor radioligand binding assay (SPA, [3H]-PGD2 displacement); settings: antagonistic activities of selected compounds
Method: The binding of CRTH2 antagonists is determined using membranes prepared from Chinese hamster ovary cells (CHO-K1 cells) transfected with the human CRTH2 receptor (CHO-K1-hCRTH2 cells, Perkin Elmer, Cat No ES-561-C). To produce cell membranes the CHO-K1-hCRTH2 cells are cultured in suspension in CHO SFMII medium supplemented with 400 μg/ml G418. The cells are harvested by centrifugation at 300 g for 10 min at room temperature. The cell pellet is resuspended in Phosphate Buffer Saline (PBS) including a protease inhibitor mix (Complete, Roche) and adjusted to a concentration of 10E7 cells/ml. The CHO-K1-hCRTH2 cells are disrupted by nitrogen […] to obtain the membrane preparation. Cell debris is removed by centrifugation (500 g at 4° C., 30 min) and the supernatant is transferred into fresh tubes followed by a second centrifugation at 40000 g for 1 h at 4° C. to sediment the membranes. The membranes are suspended in SPA incubation buffer (50 mM Tris HCl, 10 mM MgCl2, 150 mM NaCl, 1 mM EDTA, pH 7.4) without bovine serum albumin, homogenized by passing through a single use needle (Terumo, 23G×1″), and stored in aliquots at −80° C.
The CRTH2 receptor binding assay is performed in a scintillation proximity assay (SPA) format with the radioligand [^3H]-PGD2 (Perkin Elmer, NET616000MC). CHO-K1-hCRTH2 cell membranes are again homogenized by passing through a single use needle (Terumo, 23G×1″) and diluted in SPA incubation buffer in suitable concentrations (0.5-10 μg protein/well). The SPA assay is set up in 96 well microtiter plates (Perkin Elmer, CatNo. 6005040) in SPA incubation buffer with a final volume of 200 μl per well and final concentration of 50 mM Tris-HCl, 10 mM MgCl2, 150 mM NaCl, 1 mM EDTA pH 7.4, 0.1% bovine serum albumin). The SPA assay mixture contains 60 μl of the membrane suspension, 80 μl of Wheat Germ Agglutinin coated PVT beads (GE Healthcare, RPNQ-0001, 0.3 mg/well), 40 μl of [^3H]-PGD2 diluted in SPA buffer to a final concentration of 1 nM (50 000 dpm) and 20 μl of the test compound (dissolved in dimethylsulfoxid). The SPA assay mixture is incubated for 3 h at room temperature. Bound radioactivity is determined with a scintillation counter (Micro Beta Trilux, Wallac).
The binding of [^3H]-PGD2 to CHO-K1-hCRTH2 cell membranes is determined in the absence (total binding, Bo) and presence (non-specific binding, NSB) of unlabelled PGD2 (1 μM, Cayman Chemical, Cat No 12010) or a reference CRTH2 antagonist (10 μM CAY10471, Cayman Chemical, Cat No 10006735).
Determination of the affinity of a test compound is calculated by subtraction of the non-specific binding (NSB) from the total binding (Bo) or the binding in the presence of the test compound (B) at a given compound concentration. The NSB value is set to 100% inhibition. The Bo−NSB value is set to 0% inhibition.
% inhibition values were obtained at a defined compound concentration, e.g. at 1 μM, % inhibition of the test compound was calculated by the formula 100−((B−NSB)*100/(Bo−NSB)). % inhibition values above 100% are founded by assay variance.

Sequence of human CRTH2 receptor (Q9Y5Y4 whole entry): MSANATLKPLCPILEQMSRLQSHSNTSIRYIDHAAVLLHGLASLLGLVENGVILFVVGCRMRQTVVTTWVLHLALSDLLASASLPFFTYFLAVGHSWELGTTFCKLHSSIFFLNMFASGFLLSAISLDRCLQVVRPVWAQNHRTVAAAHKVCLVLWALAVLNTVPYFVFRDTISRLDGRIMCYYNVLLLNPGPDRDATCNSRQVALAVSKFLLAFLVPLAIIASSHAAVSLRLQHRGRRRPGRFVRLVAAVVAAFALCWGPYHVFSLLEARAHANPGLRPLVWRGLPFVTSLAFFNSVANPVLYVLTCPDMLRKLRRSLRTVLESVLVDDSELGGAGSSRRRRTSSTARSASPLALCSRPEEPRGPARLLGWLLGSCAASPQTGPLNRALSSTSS

Ki [nM] | Structure (SMILES)
7.4 | Cc1nn(Cc2ccc(-c3nc4cc(Br)cnc4[nH]3)cc2)c(C)c1CC(=O)O [Compound 38]
1.3 | CCc1nn(Cc2ccc(-c3nc4cc(OC)ccc4[nH]3)cc2)c(CC)c1CC(=O)O [Compound 39]
12.4 | Cc1nn(Cc2ccc(-c3nc4cc(Cl)cnc4[nH]3)cc2)c(C)c1CC(=O)O [Compound 40]
4.8 | Cc1ccc2[nH]c(-c3ccc(Cn4nc(C)c(CC(=O)O)c4C)cc3)nc2c1 [Compound 41]
1.7 | CCc1nn(Cc2ccc(-c3nc4cc(Cl)cnc4[nH]3)cc2)c(CC)c1CC(=O)O [Compound 42]
1.1 | CCc1nn(Cc2ccc(-c3nc4c(F)c(F)ccc4[nH]3)cc2)c(CC)c1CC(=O)O [Compound 43]
9.6 | COc1ccc2[nH]c(-c3ccc(Cn4nc(C)c(CC(=O)O)c4C)cc3)nc2n1 [Compound 44]
0.3 | CCc1nn(Cc2ccc(-c3nc4cc(Cl)ccc4[nH]3)cc2)c(CC)c1CC(=O)O [Compound 45]
340 | CCc1nn(Cc2ccc(-c3nc4ccccc4n3C)cc2)c(CC)c1CC(=O)O [Compound 46]
4.9 | Cc1nn(Cc2ccc(-c3nc4c(F)c(F)ccc4[nH]3)cc2)c(C)c1CC(=O)O [Compound 47]
12.9 | CCc1nn(Cc2ccc(-c3nc4cccnc4[nH]3)cc2)c(CC)c1CC(=O)O [Compound 48]
1.1 | CCc1nn(Cc2ccc(-c3nc4c(F)cc(F)cc4[nH]3)cc2)c(CC)c1CC(=O)O [Compound 50]
2.2 | CCc1nn(Cc2ccc(-c3nc4c(C)cccc4[nH]3)cc2)c(CC)c1CC(=O)O [Compound 51]
8.7 | Cc1nn(Cc2ccc(-c3nc4c(F)cccc4[nH]3)cc2)c(C)c1CC(=O)O [Compound 52]
2.3 | Cc1nn(Cc2ccc(-c3nc4cc(F)c(Cl)cc4[nH]3)cc2)c(C)c1CC(=O)O [Compound 53]
1.1 | Cc1cc2nc(-c3ccc(Cn4nc(C)c(CC(=O)O)c4C)cc3)[nH]c2cc1Cl [Compound 54]
0.5 | CCc1nn(Cc2ccc(-c3nc4cc(C)c(Cl)cc4[nH]3)cc2)c(CC)c1CC(=O)O [Compound 55]
1.3 | CCc1nn(Cc2ccc(-c3nc4cc(F)ccc4[nH]3)cc2)c(CC)c1CC(=O)O [Compound 56]
1.5 | CCc1nn(Cc2ccc(-c3nc4cc(Br)cnc4[nH]3)cc2)c(CC)c1CC(=O)O [Compound 57]
1.3 | CCc1nn(Cc2ccc(-c3nc4cc(C)ccc4[nH]3)cc2)c(CC)c1CC(=O)O [Compound 58]
7.6 | COc1ccc2[nH]c(-c3ccc(Cn4nc(C)c(CC(=O)O)c4C)cc3)nc2c1 [Compound 59]
299 | Cc1nn(Cc2ccc(-c3nc4ccncc4[nH]3)cc2)c(C)c1CC(=O)O [Compound 60]
56.4 | CCc1nn(Cc2ccc(-c3nc4ccncc4[nH]3)cc2)c(CC)c1CC(=O)O [Compound 61]
18.4 | Cc1nn(Cc2ccc(-c3nc4cc(C#N)ccc4[nH]3)cc2)c(C)c1CC(=O)O [Compound 62]

Continued, compound first:

Structure (SMILES) | Ki [nM]
Cc1nn(Cc2ccc(-c3cc4ccc(Cl)cc4[nH]3)cc2)c(C)c1CC(=O)O [Compound 1, (1-[4-(6-Chloro-1H-indol-2-yl)-benzyl]-3,5-dimethyl-1H-pyrazol-4-yl)-acetic Acid] | 0.8
Cc1nn(Cc2ccc(-c3cc4cc(C(F)(F)F)ccc4[nH]3)cc2)c(C)c1CC(=O)O [Compound 2] | 11.3
Cc1nn(Cc2ccc(-c3cc4cc(Cl)ccc4[nH]3)cc2)c(C)c1CC(=O)O [Compound 3] | 4.2
Cc1nn(Cc2ccc(-c3cc4ccc(C(F)(F)F)cc4[nH]3)cc2)c(C)c1CC(=O)O [Compound 4] | 0.3
Cc1nn(Cc2ccc(-c3cc4ccc(C(F)(F)F)cc4[nH]3)cc2F)c(C)c1CC(=O)O [Compound 5] | 0.5
Cc1nn(Cc2ccc(-c3cc4ccc(Cl)cc4[nH]3)cc2F)c(C)c1CC(=O)O [Compound 6] | 0.8
Cc1nn(Cc2cccc(-c3cc4ccc(Cl)cc4[nH]3)c2)c(C)c1CC(=O)O [Compound 7] | 397
Cc1nn(Cc2ccccc2-c2cc3ccc(Cl)cc3[nH]2)c(C)c1CC(=O)O [Compound 8] | 394
Cc1nn(Cc2cccc(-c3cc4ccc(C(F)(F)F)cc4[nH]3)c2)c(C)c1CC(=O)O [Compound 9] | 97.8
Cc1nn(Cc2ccc(-c3cc4ncccc4[nH]3)cc2)c(C)c1CC(=O)O [Compound 10] | 308
Cc1nn(Cc2ccc(-c3cc4ccc(C(F)(F)F)cc4[nH]3)cc2C(F)(F)F)c(C)c1CC(=O)O [Compound 11] | 0.7
Cc1nn(Cc2ccc(-c3cc4cccnc4[nH]3)cc2F)c(C)c1CC(=O)O [Compound 12] | 155
Cc1nn(Cc2ccc(-c3nc4ccccc4[nH]3)cc2)c(C)c1CC(=O)O [Compound 14] | 13.4
CCc1nn(Cc2ccc(-c3nc4ccccc4[nH]3)cc2)c(CC)c1CC(=O)O [Compound 15] | 2.3
CCc1nn(Cc2ccc(-c3nc4cc(Cl)c(Cl)cc4[nH]3)cc2)c(CC)c1CC(=O)O [Compound 16] | 0.2
Cc1nn(Cc2ccc(-c3nc4cc(Cl)c(Cl)cc4[nH]3)cc2)c(C)c1CC(=O)O [Compound 17] | 1.2
Cc1nn(Cc2ccc(-c3nc4cc5ccccc5cc4[nH]3)cc2)c(C)c1CC(=O)O [Compound 18] | 0.8

Structure (SMILES) | Ki [nM]
CCc1nn(Cc2ccc(-c3nc4cc5ccccc5cc4[nH]3)cc2)c(CC)c1CC(=O)O [Compound 19] | 0.1
CCc1nn(Cc2ccc(-c3nc4ccc(C(F)(F)F)cc4[nH]3)cc2)c(CC)c1CC(=O)O [Compound 20] | 0.2
Cc1nn(Cc2ccc(-c3nc4ccc(C(F)(F)F)cc4[nH]3)cc2)c(C)c1CC(=O)O [Compound 21] | 1.4
Cc1cc(Cn2nc(C)c(CC(=O)O)c2C)ccc1-c1nc2ccccc2[nH]1 [Compound 22] | 21.9
Cc1nn(Cc2ccc(-c3nc4cc(Cl)ccc4[nH]3)cc2)c(C)c1CC(=O)O [Compound 24] | 1.9
Cc1nn(Cc2ccc(-c3nc4cc(Cl)ccc4n3C)cc2)c(C)c1CC(=O)O [Compound 25] | 176
CCc1nn(Cc2ccc(-c3nc4cncc(C)c4[nH]3)cc2)c(CC)c1CC(=O)O [Compound 26] | 22.6
CCc1nn(Cc2ccc(-c3nc4cc(F)c(Cl)cc4[nH]3)cc2)c(CC)c1CC(=O)O [Compound 27] | 0.4
Cc1nn(Cc2ccc(-c3nc4c(C)cncc4[nH]3)cc2)c(C)c1CC(=O)O [Compound 29] | 646
Cc1nn(Cc2ccc(-c3nc4ccccc4n3C)cc2)c(C)c1CC(=O)O [Compound 30] | 753
Cc1nn(Cc2ccc(-c3nc4cccnc4[nH]3)cc2)c(C)c1CC(=O)O [Compound 31] | 118
Cc1nn(Cc2ccc(-c3nc4cc(Br)ccc4[nH]3)cc2)c(C)c1CC(=O)O [Compound 32] | 1.2
Cc1nn(Cc2ccc(-c3nc4cc(C(C)(C)C)ccc4[nH]3)cc2)c(C)c1CC(=O)O [Compound 33] | 0.5
CCc1nn(Cc2ccc(-c3nc4cc(C#N)ccc4[nH]3)cc2)c(CC)c1CC(=O)O [Compound 34] | 3.7
CCc1nn(Cc2ccc(-c3nc4cc(Cl)c(Cl)cc4n3C)cc2)c(CC)c1CC(=O)O [Compound 35] | 66.7
Cc1nn(Cc2ccc(-c3nc4c(F)cc(F)cc4[nH]3)cc2)c(C)c1CC(=O)O [Compound 36] | 5.6
CCc1nn(Cc2ccc(-c3nc4cncnc4[nH]3)cc2)c(CC)c1CC(=O)O [Compound 37] | 85.4

From US9206164B2, “Pyrazole compounds as CRTH2 antagonists” (Boehringer Ingelheim International GmbH, priority 2011, dated 2015)
